# Experimental data from patent US20170051149A1, “AZOARYLS AS REVERSIBLY MODULATABLE TUBULIN INHIBITORS” (ECOLE NORMALE SUPERIEURE DE LYON, priority 2014, published 2017).
# Columns and labels:
# Type in all cases: cell-based
# HEK-293T cells = assay: MTT assay, light-dependent cell proliferation; details: 72 h
# HEK-293 = assay: cell cycle analysis by PI flow cytometry; details: 30 h
# Method: (§1) The effect of compound I.1 on cell cycle progression was assessed by flow cytometry. Briefly, following the application of compound I.1 and exposure to the indicated light regime, cells were harvested on ice and incubated in a hypotonic buffer [0.1% sodium citrate, 0.1% Triton X-100 and 50 μg/mL propidium iodide (PI)] for 30 min at 4° C. Following the PI staining cells were analysed by flow cytometry using FACSCalibur flow cytometer (Becton Dickinson, Heidelberg, Germany) and Cell Quest Pro Software (Becton Dickinson). Subsequently the cell cycle analysis was performed using the FlowJo software (Tree Star Inc., Ashland, Oreg., USA).
# MDA-MB-231 cells = assay: cell cycle analysis by PI flow cytometry; details: 10 nM, 390 nm (150 ms every 30 s), 48 h
# Method: as §1
smiles,measurement,setting,value
"COc1ccc(N=Nc2cc(OC)c(OC)c(OC)c2)cc1O [I.1, 2-methoxy-5-((3,4,5-trimethoxyphenyl)diazenyl)phenol]",fold growth relative to cosolvent control (MTT),"HEK-293T cells; 100 nM, 390 nm, 0.35 s every 2 min",1.31
same,fold growth relative to cosolvent control (MTT),"HEK-293T cells; 100 nM, 390 nm, 0.35s then 490 nm, 3 s (rescue) every 2 min",1.26
same,fold growth relative to cosolvent control (MTT),"HEK-293T cells; 100 nM, 410 nm, 0.35 s every 2 min",1.19
same,fold growth relative to cosolvent control (MTT),"HEK-293T cells; 100 nM, 410 nm, 0.35 s then 505 nm, 3 s (rescue) every 2 min",1.29
same,fold growth relative to cosolvent control (MTT),"HEK-293T cells; 100 nM, 475 nm, 3 s every 2 min",1.11
same,fold growth relative to cosolvent control (MTT),"HEK-293T cells; 100 nM, 490 nm, 3 s every 2 min",1.10
same,fold growth relative to cosolvent control (MTT),"HEK-293T cells; 100 nM, 505 nm, 3 s every 2 min",1.22
same,fold growth relative to cosolvent control (MTT),"HEK-293T cells; 100 nM, 525 nm, 3 s every 2 min",1.12
same,fold growth relative to cosolvent control (MTT),"HEK-293T cells; 100 nM, Dark",1.29
same,fold growth relative to cosolvent control (MTT),"HEK-293T cells; 400 nM, 390 nm, 0.35 s every 2 min",0.67
same,fold growth relative to cosolvent control (MTT),"HEK-293T cells; 400 nM, 390 nm, 0.35s then 490 nm, 3 s (rescue) every 2 min",0.69
same,fold growth relative to cosolvent control (MTT),"HEK-293T cells; 400 nM, 410 nm, 0.35 s every 2 min",0.70
same,fold growth relative to cosolvent control (MTT),"HEK-293T cells; 400 nM, 410 nm, 0.35 s then 505 nm, 3 s (rescue) every 2 min",0.86
same,fold growth relative to cosolvent control (MTT),"HEK-293T cells; 400 nM, 475 nm, 3 s every 2 min",0.55
same,fold growth relative to cosolvent control (MTT),"HEK-293T cells; 400 nM, 490 nm, 3 s every 2 min",0.69
same,fold growth relative to cosolvent control (MTT),"HEK-293T cells; 400 nM, 505 nm, 3 s every 2 min",0.87
same,fold growth relative to cosolvent control (MTT),"HEK-293T cells; 400 nM, 525 nm, 3 s every 2 min",0.82
same,fold growth relative to cosolvent control (MTT),"HEK-293T cells; 400 nM, Dark",0.87
same,fold growth relative to cosolvent control (MTT),"HEK-293T cells; 800 nM, 390 nm, 0.35 s every 2 min",0.38
same,fold growth relative to cosolvent control (MTT),"HEK-293T cells; 800 nM, 390 nm, 0.35s then 490 nm, 3 s (rescue) every 2 min",0.33
same,fold growth relative to cosolvent control (MTT),"HEK-293T cells; 800 nM, 410 nm, 0.35 s every 2 min",0.51
same,fold growth relative to cosolvent control (MTT),"HEK-293T cells; 800 nM, 410 nm, 0.35 s then 505 nm, 3 s (rescue) every 2 min",0.67
same,fold growth relative to cosolvent control (MTT),"HEK-293T cells; 800 nM, 475 nm, 3 s every 2 min",0.37
same,fold growth relative to cosolvent control (MTT),"HEK-293T cells; 800 nM, 490 nm, 3 s every 2 min",0.43
same,fold growth relative to cosolvent control (MTT),"HEK-293T cells; 800 nM, 505 nm, 3 s every 2 min",0.92
same,fold growth relative to cosolvent control (MTT),"HEK-293T cells; 800 nM, 525 nm, 3 s every 2 min",1.00
same,fold growth relative to cosolvent control (MTT),"HEK-293T cells; 800 nM, Dark",0.95
same,fold growth relative to cosolvent control (MTT),"HEK-293T cells; 1.5 μM, 390 nm, 0.35 s every 2 min",0.22
same,fold growth relative to cosolvent control (MTT),"HEK-293T cells; 1.5 μM, 390 nm, 0.35s then 490 nm, 3 s (rescue) every 2 min",0.18
same,fold growth relative to cosolvent control (MTT),"HEK-293T cells; 1.5 μM, 410 nm, 0.35 s every 2 min",0.25
same,fold growth relative to cosolvent control (MTT),"HEK-293T cells; 1.5 μM, 410 nm, 0.35 s then 505 nm, 3 s (rescue) every 2 min",0.25
same,fold growth relative to cosolvent control (MTT),"HEK-293T cells; 1.5 μM, 475 nm, 3 s every 2 min",0.19
same,fold growth relative to cosolvent control (MTT),"HEK-293T cells; 1.5 μM, 490 nm, 3 s every 2 min",0.19
same,fold growth relative to cosolvent control (MTT),"HEK-293T cells; 1.5 μM, 505 nm, 3 s every 2 min",0.42
same,fold growth relative to cosolvent control (MTT),"HEK-293T cells; 1.5 μM, 525 nm, 3 s every 2 min",0.66
same,fold growth relative to cosolvent control (MTT),"HEK-293T cells; 1.5 μM, Dark",0.71
same,fold growth relative to cosolvent control (MTT),"HEK-293T cells; 3 μM, 390 nm, 0.35 s every 2 min",0.17
same,fold growth relative to cosolvent control (MTT),"HEK-293T cells; 3 μM, 390 nm, 0.35s then 490 nm, 3 s (rescue) every 2 min",0.14
same,fold growth relative to cosolvent control (MTT),"HEK-293T cells; 3 μM, 410 nm, 0.35 s every 2 min",0.18
same,fold growth relative to cosolvent control (MTT),"HEK-293T cells; 3 μM, 410 nm, 0.35 s then 505 nm, 3 s (rescue) every 2 min",0.22
same,fold growth relative to cosolvent control (MTT),"HEK-293T cells; 3 μM, 475 nm, 3 s every 2 min",0.15
same,fold growth relative to cosolvent control (MTT),"HEK-293T cells; 3 μM, 490 nm, 3 s every 2 min",0.20
same,fold growth relative to cosolvent control (MTT),"HEK-293T cells; 3 μM, 505 nm, 3 s every 2 min",0.27
same,fold growth relative to cosolvent control (MTT),"HEK-293T cells; 3 μM, 525 nm, 3 s every 2 min",0.64
same,fold growth relative to cosolvent control (MTT),"HEK-293T cells; 3 μM, Dark",0.66
same,fold growth relative to cosolvent control (MTT),"HEK-293T cells; 6 μM, 390 nm, 0.35 s every 2 min",0.29
same,fold growth relative to cosolvent control (MTT),"HEK-293T cells; 6 μM, 390 nm, 0.35s then 490 nm, 3 s (rescue) every 2 min",0.18
same,fold growth relative to cosolvent control (MTT),"HEK-293T cells; 6 μM, 410 nm, 0.35 s every 2 min",0.23
same,fold growth relative to cosolvent control (MTT),"HEK-293T cells; 6 μM, 410 nm, 0.35 s then 505 nm, 3 s (rescue) every 2 min",0.30
same,fold growth relative to cosolvent control (MTT),"HEK-293T cells; 6 μM, 475 nm, 3 s every 2 min",0.21
same,fold growth relative to cosolvent control (MTT),"HEK-293T cells; 6 μM, 490 nm, 3 s every 2 min",0.34
same,fold growth relative to cosolvent control (MTT),"HEK-293T cells; 6 μM, 505 nm, 3 s every 2 min",0.27
same,fold growth relative to cosolvent control (MTT),"HEK-293T cells; 6 μM, 525 nm, 3 s every 2 min",0.39
same,fold growth relative to cosolvent control (MTT),"HEK-293T cells; 6 μM, Dark",0.80
same,fold growth relative to cosolvent control (MTT),"HEK-293T cells; 15 μM, 390 nm, 0.35 s every 2 min",0.28
same,fold growth relative to cosolvent control (MTT),"HEK-293T cells; 15 μM, 390 nm, 0.35s then 490 nm, 3 s (rescue) every 2 min",0.21
same,fold growth relative to cosolvent control (MTT),"HEK-293T cells; 15 μM, 410 nm, 0.35 s every 2 min",0.23
same,fold growth relative to cosolvent control (MTT),"HEK-293T cells; 15 μM, 410 nm, 0.35 s then 505 nm, 3 s (rescue) every 2 min",0.24
same,fold growth relative to cosolvent control (MTT),"HEK-293T cells; 15 μM, 475 nm, 3 s every 2 min",0.17
same,fold growth relative to cosolvent control (MTT),"HEK-293T cells; 15 μM, 490 nm, 3 s every 2 min",0.31
same,fold growth relative to cosolvent control (MTT),"HEK-293T cells; 15 μM, 505 nm, 3 s every 2 min",0.20
same,fold growth relative to cosolvent control (MTT),"HEK-293T cells; 15 μM, 525 nm, 3 s every 2 min",0.29
same,fold growth relative to cosolvent control (MTT),"HEK-293T cells; 15 μM, Dark",0.87
same,mean % G2/M phase,"HEK-293; 200 nM, 390 nm (1 s every 15 min)",19.0%
same,mean % G2/M phase,"HEK-293; 200 nM, dark",20.2%
same,mean % G2/M phase,"HEK-293; 600 nM, 390 nm (1 s every 15 min)",19.4%
same,mean % G2/M phase,"HEK-293; 600 nM, dark",21.2%
same,mean % G2/M phase,"HEK-293; 1.5 μM, 390 nm (1 s every 15 min)",65.3%
same,mean % G2/M phase,"HEK-293; 1.5 μM, dark",21.1%
same,mean % G2/M phase,"HEK-293; 5 μM, 390 nm (1 s every 15 min)",71.5%
same,mean % G2/M phase,"HEK-293; 5 μM, dark",24.6%
same,% G1,MDA-MB-231 cells,74.6%
